Reference: paper PMC7711817, “Quantitative, High-Throughput Assays for Proteolytic Degradation of Amylin” (Methods and Protocols, 2020)
“Also recorded” adds a separate entry of the source. Like-named read-outs stand apart in the source and are kept apart here. Where no end group is shown, it is not given here.

What was measured:
[1] = test system: insulin-degrading enzyme (IDE); conditions: cited from earlier work
Description: Amylin is a 37-residue peptide with a highly conserved sequence that is present in all mammals. To be fully active, two major post-translational modifications are required: a C-terminal amide (Tyr37) and a disulfide bond between two cysteine residues found at positions 2 and 7 [6]. […] As is true for other amyloidogenic substrates, such as the amyloid β-protein (Aβ), it is likely that multiple amylin proteases exist that work in ... || We also developed a FRET-based fluorescence dequenching assay, which was successful in many respects, but about which some caution is warranted. First, the particular placement of the fluorescing EDANS and quenching DABCYL groups was designed to be optimal for a known cleavage site hydrolyzed by IDE [26]. This particular placement may not be ideal for other amylin proteases, depending on where they cleave the peptide. Secondly, whereas the FrAB-based AP and FP protocols both yielded kinetic parameters close to one another and also similar in magnitude to those obtained for other IDE substrat ...

[2] = test system: beta-site APP-cleaving enzyme 2 (BACE2); conditions: cited from earlier work
Description: Amylin is a 37-residue peptide with a highly conserved sequence that is present in all mammals. To be fully active, two major post-translational modifications are required: a C-terminal amide (Tyr37) and a disulfide bond between two cysteine residues found at positions 2 and 7 [6]. […] As is true for other amyloidogenic substrates, such as the amyloid β-protein (Aβ), it is likely that multiple amylin proteases exist that work in ...

[3] = cited from earlier work
Description: Amylin, also known as islet amyloid polypeptide, is a peptide hormone that is stored in pancreatic beta-cells and co-secreted with insulin in response to many factors, including glucose, arginine, and fatty acids. Amylin plays a role in inhibiting glucagon secretion and delaying gastric emptying as well as modulating other aspects of food processing and satiety.

[4] = Effect of avidin concentration on FP (mP) of FrAB; assay type: binding
Description: To assess the suitability of FrAB to the FP protocol, we measured the degree of depolarization (measured in millipolarization units, mP) in uncleaved versus fully cleaved substrate in the absence or presence of excess avidin. […] Not only was substantially less depolarization observed with the intact substrate alone, but the depolarization was reduced even further by the addition of avidin (Figure 1g). As expected from the preceding results, hydrolysis of FrAB as a function of time could be readily monitored using the FP protocol (Figure 1h).
Avidin (and avidin-agarose) is an expensive reagent, and thus it is valuable to establish the minimum avidin/FrAB ratio necessary for reliable results. To that end, we added varying amounts of avidin to a fixed quantity (100 nM) of both cleaved and uncleaved FrAB and assessed the results using the FP protocol. […] Accordingly, we recommend that a minimum avidin/FrAB ratio of ≈10:1 be used in practice.

recombinant human IDE [5] = biological target: T1, recombinant human IDE (Homo sapiens, UniProt P14735); conditions: FrAB substrate, FP protocol (corrected), 1 nM IDE; mean ± SEM of four independent replications
Description: For fluorescence polarization (FP)-based assays, reactions were typically performed directly in low-volume 384-well microplates. To that end, 3× IDE solution (8 µL) was combined with 3× compound or DMSO (8 µL) and allowed to equilibrate for ≥5 min at room temperature. Reactions were initiated by addition of 3× FrAB substrate (8 µL), typically at 100 nM final concentration, except where indicated. After the appropriate incubation period, reactions were terminated by addition of 4× FP Stop Buffer (8 µL; PBS/0.05% biotin-free BSA containing a final concentration of 2 mM 1,10-phenanthroline and 10-fold molar excess avidin (monomer)), triturated ≥3 times to ensure even mixing. […] Fluorescence polarization (λex = 485 nm, λem = 515 nm) was read on a multilabel plate reader (SpectraMAX M5^e, Molecular Devices, San Jose, CA, USA) using the default fluorescence polarization protocol, with the g-factor value maintained at 1.0. high-throughput screening (HTS) being performed manually using a 16-channel pipettor.
(§1) For all assays, results were normalized to data from negative (0% hydrolysis, no IDE) and positive (100% hydrolysis, excess IDE) controls and, where appropriate, expressed as percent hydrolysis. In the case of AP-based assays, percent hydrolysis was a linear function of the percent maximal change in relative fluorescence (RFU; %ΔRFU) between positive and negative controls. […]

avidin-agarose = assay: Avidin-agarose precipitation of fluoresceinated and biotinylated amylin substrates; assay type: binding; conditions: for precipitation by / binding to avidin(-agarose) of uncleaved substrate: uncleaved substrate (- IDE), 1 μM, fluorescence read-out
Description: In previous work, we developed robust proteolytic degradation assays for Aβ [18] and glucagon on the basis of synthetic versions of these substrates containing fluorescein at the N‑terminus and biotin (in the form of Lys(Ahx-biotin)) at the C-terminus. This general approach enables a facile method for detecting hydrolysis, which we call avidin-agarose precipitation (AP). Briefly, hydrolysis can be readily quantified by removing the intact (biotinylated and fluoresceinated) substrates with avidin-agarose, then quantifying the remaining (fluoresceinated only) proteolytic fragments by fluorescence. This approach has the advantage of being readily implementable in any laboratory equipped with a fluorescence reader. Although convenient, the AP protocol requires centrifugation and liquid transfer steps that make it less amenable to high-throughput or robotized applications (Figure 1a).
Because the C-terminal portion of human amylin is the most aggregation-prone region of the peptide, we hypothesized that strong secondary structure in this area may have rendered the biotin moiety inaccessible to productive interactions with avidin. […] In one version, substrate 2 (Figure 1c; Table 1), we swapped the positions of the fluorescein and biotin groups, while in the other, substrate 3 (Figure 1d; Table 1), we maintained their placement at the N‑ and C-termini, respectively. […] On the basis of these preliminary results, we elected to use substrate 3 for downstream assay development, renaming it FrAB (fluorescein-rodent amylin-biotin). As expected, hydrolysis of FrAB could be readily monitored using the AP protocol, with hydrolysis resulting in a steady increase in fluorescence signal as a function of time in the presence of low quantities of IDE (Figure 1e).

recombinant human IDE [6] = biological target: T1, recombinant human IDE; conditions: FrAB substrate, AP protocol, 1 nM IDE; mean ± SEM of four independent replications
Description: The specific activity of recombinant IDE was verified to be within 5% of the value determined from protein concentration (quantified by nanodrop).
To ensure homogeneity of solution concentrations, we mixed all solutions well by gentle rocking on a nutator for ≥10 min at room temp (21–23 °C), and dispensed them manually using 16-channel pipettors fitted with 20-µL FinnTip pipette tips. For experiments conducted in 384-well plates, or transfers thereto, mixing was performed by ≥3 rounds of trituration after dispensing of the final solution. […] After we carefully removed the tubes from the centrifuge to avoid disturbing the pelleted avidin-agarose, the supernatant was transferred to low-volume 384-well microplates (30 µL/well), then fluorescence (λex = 485 nm, λem = 515 nm) was read on a multilabel plate reader (SpectraMAX, Molecular Devices, San Jose, CA, USA).
as §1

recombinant human IDE [7] = biological target: T1, recombinant human IDE; assay: Fluorescence change on full cleavage by IDE; assay type: biochemical; set-up: made in house; conditions: complete hydrolysis by excess IDE, 1 μM substrate, before avidin-agarose precipitation
Description: Substrates were dissolved in DMSO as 1 mM stocks as calculated from the manufacturer-provided weight of lyophylized peptide and its MW, taking into account purity levels. […] The specific activity of recombinant IDE was verified to be within 5% of the value determined from protein concentration (quantified by nanodrop).
For fluorescence-dequenching assays, reactions were typically performed directly in low-volume 384-well microplates, and because the measurements could be monitored continuously, there was no need to stop the reactions. To that end, 3× IDE solution (10 µL) was combined with 3× compound or DMSO (10 µL) and allowed to equilibrate for ≥5 min at room temperature. Reactions were initiated by addition of 3× FrAB substrate (10 µL), typically at 100 nM final concentration. Fluorescence (λex = 336 nm, λem = 490 nm) was monitored repeatedly at frequent intervals (e.g., 30 s) on a multilabel plate reader (SpectraMAX, Molecular Devices, San Jose, CA, USA) using the default fluorescence measurement protocol.

amylin: 37-residue pancreatic peptide hormone, also known as islet amyloid polypeptide (KCNTATCATQRLANFLVHSSNNFGAILSSTNVGSNTY; not fully specified (C-terminus, bridges); cysteine pairing not given here; UniProt P10997 34-70, looked up)
hydrolysis by IDE [1]: can be hydrolyzed
hydrolysis by BACE2 [2]: can be hydrolyzed

rodent amylin: rodent amylin, far less prone to aggregation than the human peptide
aggregation propensity ([3]; rodent amylin vs. human peptide): far less prone to aggregation and secondary structure formation than the human peptide

glucagon: peptide hormone relevant to glucose homeostasis
degradation by IDE [1]: IDE also degrades

insulin: peptide hormone relevant to glucose homeostasis
degradation by IDE [1]: IDE also degrades

avidin: avidin, a 64-kDa tetramer; egg white avidin [reference compound]
EC50 ([4]; avidin (monomer) concentration, uncleaved FrAB 100 nM, FP, n = 4 (mean ± SEM), read-out: apparent EC50 of avidin for increase in mP): 33.5 ± 7.5 nM
avidin concentration at which increase in mP values reaches a plateau ([4]; avidin (monomer), 100 nM FrAB, FP protocol): ≈ 1 µM

fluorescein-rodent amylin-biotin [FrAB]
kcat/KM (recombinant human IDE [5]): ≈ 1 × 10^7 M^-1 s^-1
depolarization of light by fully cleaved substrate ([4]; FrAB 1 μM, fully hydrolyzed (+ IDE) vs. uncleaved, FP): significantly more than uncleaved substrate
effect of avidin on mP of fully cleaved substrate ([4]; fully cleaved FrAB, 100 nM, FP protocol): unaffected by avidin; also recorded: unaffected even by very high concentrations of avidin
fluorescence of fully cleaved substrate after avidin-agarose precipitation (avidin-agarose; fully cleaved by IDE, 1 μM substrate, listed as substrate 3): remained constant before and after AP; also recorded: strong fluorescence signal after precipitation
precipitation by / binding to avidin(-agarose) of uncleaved substrate (avidin-agarose; listed as substrate 3): readily precipitated by avidin-agarose
kcat/KM (recombinant human IDE [6]): ≈ 1 × 10^7 M^-1 s^-1

human amylin: aggregation-prone human form of amylin (KCNTATCATQRLANFLVHSSNNFGAILSSTNVGSNTY; not fully specified (C-terminus, bridges); cysteine pairing not given here; UniProt P10997 34-70, looked up)
aggregation propensity ([3]; human amylin): highly aggregation-prone

[5-FAM]KCNTATCATQRLANFLVHSSNNFGAILSSTNVGSNTY[Lys(Ahx-biotin)]-amide (disulfide) (5-FAM N-term, Lys(Ahx-biotin) C-term amide, disulfide) [Substrate 1]
precipitation by / binding to avidin(-agarose) of uncleaved substrate (avidin-agarose): biotin does not bind to avidin
precipitation by / binding to avidin(-agarose) of uncleaved substrate (avidin-agarose; listed as substrate 1): could not be precipitated by avidin-agarose
fluorescence increase relative to uncleaved substrate (in words) (recombinant human IDE [7]): modest increase in fluorescence
